pEC50: −log10 of the molar value. Converted amounts (≈) assume the structure as drawn. Like-named read-outs stand apart in the source and are kept apart here.
Columns and labels:
A. baumannii ATCC 19606 = assay: Broth microdilution MIC in CAMHB; format: cell-based; settings: Acinetobacter baumannii, ATCC19606; MHB; read-out: Minimum Inhibitory Concentration, A. baumannii ATCC 19606
Protocol: (§1) Example III: In Vitro Antibacterial Assays
(§2) To determine the ability of test compounds to inhibit the growth of bacterial strains, classic cell based broth microdilution minimum inhibitory concentration (MIC) assays were employed. MIC assays are performed according to CLSI methods except where otherwise noted (CLSI, 2018 and CLSI, 2019). The reference type strain E. coli ATCC 25922; the wild-type parent strain E. coli AG100; the hyper-permeable E. coli 901C and E. coli D22; and the E. coli AG100A strain lacking the acrAB efflux pump encoding genes were used to determine the ability of the PBP inhibitors to penetrate the outer membrane of gram-negative bacteria and inhibit bacterial growth. […] The P. aeruginosa ATCC 27853 and A. baumannii ATCC 19606, along with the hyper-permeable P. aeruginosa ATCC 35151 and an engineered efflux pump-compromised strain of P. aeruginosa (ΔmexAB-oprM) were used to determine the ability of PBP inhibitors to penetrate the outer membrane of P. aeruginosa and A. baumannii and assess antibacterial activity against these important gram-negative organisms.
(§3) Briefly, cryo-preserved bacterial cultures of challenge strains are streaked for isolation on appropriate agar medium, in this case cation-adjusted Mueller Hinton agar. Following incubation to allow growth of the colonies, plates are sealed with parafilm and stored refrigerated for up to two weeks. For preparation of assay inoculum and to ensure low variability, at least 5 colonies are picked from the agar plates with an inoculating loop and aseptically transferred to a culture tube containing 3 mL of cation-adjusted Mueller Hinton broth (CAMHB). The broth culture is grown for 3-5 hours at 37° C. with shaking at 200 rpm. Meanwhile, 2-fold serial dilutions of test compounds are conducted in a 96-well plate with a final volume of 75 μL per well at 2-fold the final desired concentration. After the dilution plates are set up the growing cultures are then diluted in a cuvette containing CAMHB and the optical density is measured at 600 nm. The inoculum is diluted such that 75 μL of this culture in CAMHB results in a starting bacterial concentration of 2-8×10^5 CFU/mL when added to the dilution plates. The plates are incubated for 16-20 hours for Enterobacteriaceae and Pseudomonas and 20-24 hours for Acinetobacter at 37° C. The MIC values are read visually as the lowest concentration well with no bacterial growth.

P. aeruginosa ATCC 27853 = assay: Broth microdilution MIC in CAMHB; format: cell-based; settings: Pseudomonas aeruginosa, ATCC27853; MHB; read-out: Minimum Inhibitory Concentration, P. aeruginosa ATCC 27853
Protocol: as §1, §2, §3

[1] = test system: P. aeruginosa (ΔmexAB-oprM); assay: Broth microdilution MIC in CAMHB; format: cell-based; settings: Pseudomonas aeruginosa, read-out: Minimum Inhibitory Concentration, P. aeruginosa ΔmexAB-OprM
Protocol: as §1, §2, §3

P. aeruginosa ATCC 35151 = assay: Broth microdilution MIC in CAMHB; format: cell-based; settings: Pseudomonas aeruginosa, ATCC35151; MHB; hyper-permeable strain; read-out: Minimum Inhibitory Concentration, P. aeruginosa ATCC 35151
Protocol: as §1, §2, §3

E. coli D22 = assay: Broth microdilution MIC in CAMHB; format: cell-based; settings: Escherichia coli, MHB, read-out: Minimum Inhibitory Concentration, E. coli D22
Protocol: as §1, §2, §3

[2] = test system: K. pneumoniae UMM producing SHV-5 and KPC-2; assay: Broth microdilution MIC in CAMHB; format: cell-based; settings: Klebsiella pneumoniae, read-out: Minimum Inhibitory Concentration, K. pneumoniae UMM
Protocol: as §1, §2, §3

E. coli AG100 = assay: Broth microdilution MIC in CAMHB; format: cell-based; settings: Escherichia coli, MHB, read-out: Minimum Inhibitory Concentration, E. coli AG100
Protocol: as §1, §2, §3

E. coli ATCC 25922 = assay: Broth microdilution MIC in CAMHB; format: cell-based
Protocol: as §1, §2, §3

[3] = test system: K. pneumoniae 848844 producing SHV-11 and KPC-2; assay: Broth microdilution MIC in CAMHB; format: cell-based; settings: Klebsiella pneumoniae, read-out: Minimum Inhibitory Concentration, K. pneumoniae 848844
Protocol: as §1, §2, §3

E. coli 901C = assay: Broth microdilution MIC in CAMHB; format: cell-based; settings: Escherichia coli, MHB, read-out: Minimum Inhibitory Concentration, E. coli 901C
Protocol: as §1, §2, §3

E. coli AG100A = assay: Broth microdilution MIC in CAMHB; format: cell-based; settings: Escherichia coli, read-out: Minimum Inhibitory Concentration, E. coli AG100A
Protocol: as §1, §2, §3

[4] = test system: K. pneumoniae SI-117 producing VIM-1; assay: Broth microdilution MIC in CAMHB; format: cell-based; settings: Klebsiella pneumoniae, read-out: Minimum Inhibitory Concentration, K. pneumoniae SI-117
Protocol: as §1, §2, §3

P. aeruginosa PBP3 = target: T1, P. aeruginosa PBP3 (Pseudomonas aeruginosa, UniProt G3XD46); assay: Bocillin-FL fluorescence polarization competition binding assay, P. aeruginosa PBP3; settings: P. aeruginosa PBP3; assay validation with beta-lactams; read-out: EC50 (concentration of beta-lactam required to reduce the amount of PBP bound-Bocillin-FL by 50%)
T1 construct: made in house
T1 sequence (G3XD46 whole entry): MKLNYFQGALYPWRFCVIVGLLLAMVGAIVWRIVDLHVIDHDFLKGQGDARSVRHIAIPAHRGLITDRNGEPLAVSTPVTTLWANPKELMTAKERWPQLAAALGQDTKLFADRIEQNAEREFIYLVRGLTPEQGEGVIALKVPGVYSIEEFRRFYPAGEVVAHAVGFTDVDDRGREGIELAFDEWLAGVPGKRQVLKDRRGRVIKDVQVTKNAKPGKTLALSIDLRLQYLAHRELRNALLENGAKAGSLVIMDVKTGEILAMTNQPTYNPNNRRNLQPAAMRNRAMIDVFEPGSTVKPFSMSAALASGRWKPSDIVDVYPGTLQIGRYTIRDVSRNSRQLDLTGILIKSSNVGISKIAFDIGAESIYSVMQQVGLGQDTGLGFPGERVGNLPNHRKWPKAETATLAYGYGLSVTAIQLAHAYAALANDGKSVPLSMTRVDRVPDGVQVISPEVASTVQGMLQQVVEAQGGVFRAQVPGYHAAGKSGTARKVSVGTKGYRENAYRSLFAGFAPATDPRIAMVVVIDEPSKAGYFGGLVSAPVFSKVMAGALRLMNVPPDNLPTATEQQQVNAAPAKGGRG
Text: Example I: Experimental Method for Penicillin-Binding Protein Binding Assays with Bocillin-FL Via Fluorescence Polarization
To determine the ability of boronic acid-based test PBP inhibitors to bind Penicillin Binding Proteins (PBPs), Bocillin-FL (fluorescently-labeled penicillin V; ThermoFisher Scientific) was used in a fluorescence polarization (FP) competition binding assay to assess inhibitor binding to PBP2, PBP3 or PBP4 from Escherichia coli (K12), PBP3 from Pseudomonas aeruginosa (PA01), PBP1a, PBP2 and PBP3 from Acinetobacter baumannii (ATCC 19606), and PBP2 from Neiserria gonorrheae (FA19). PBPs were cloned and purified as described previously (E. coli PBPs, King, D. T, et al., ACS Infectious Diseases 2015, 1, 175-184; P. aeruginosa PBP3, Han et. al., PNAS 2010, 107 (51), 22002-22007; A. baumannii PBPs, Penwell et. al., Antimicrob. Agents Chemother. 2015, 59 (3), 1680-1689; N. gonorrhoeae PBP2, Singh et. al., J Biol. Chem. 2019, 294 (38), 14020-14032). To establish assay conditions for competition binding, enzyme titration/saturation binding experiments were initially performed. Bocillin-FL was prepared at 0.2 μM in a buffer comprised of 50 mM Hepes (pH 8.0), 300 mM NaCl and 5% (v/v) glycerol for reactions with E. coli, P. aeruginosa and N. gonorrhoeae PBPs, and 25 mM Tris (pH 8.0), 200 mM NaCl and 10% (v/v) glycerol and 0.005% (v/v) Tween 20 for reactions with A. baumannii PBPs. Saturation binding was performed by mixing 40 μl of PBP solutions ranging in concentrations from 0-24 μM with 40 μl of the 0.2 μM Bocillin-FL solution, in individual wells of a black 384-well microplate. FP was measured immediately upon mixing (Excitation, 490 nm; Emission, 520 nm; g-factor, 0.96), using a Cytation3 (BioTek) microplate reader and measured continuously for up to 120 minutes. […] The competition binding assay (80 μl final volume) was validated using beta-lactams and PBPs at final concentrations of: 1.5 μM, E. coli PBP3; 0.75 μM, P. aeruginosa PBP3; 1 μM A. baumannii PBP1a; 2.5 μM A. baumannii PBP2; 0.2 μM A. baumannii PBP3; and […] N. gonorrhoeae PBP2. Bocillin-FL was at 0.1 μM (0.05 μM with A. baumannii PBP1a) and beta-lactam concentrations ranged from 0-1000 μM. […] Bocillin-FL was added and the FP immediately measured for up to 60 minutes (90 minutes for E. coli PBP2). […] The beta-lactam potency was reported as the concentration of beta-lactam required to reduce the amount of PBP bound-Bocillin-FL by 50% (EC50). […] Binding assays for boronic acid PBP inhibitors were performed in an identical fashion for the respective PBPs

[5] = wild-type parent strain E. coli AG100
[6] = Escherichia coli, ATCC25922; MHB; E. coli ATCC 25922; read-out: Minimum Inhibitory Concentration, E. coli 25922

Row | Compound | MIC (A. baumannii ATCC 19606) | MIC (P. aeruginosa ATCC 27853) | MIC [1] | MIC (P. aeruginosa ATCC 35151) | MIC (E. coli D22; E. coli D22 (hyper-permeable)) | MIC [2] | MIC (E. coli AG100; E. coli AG100 (wild-type parent)) | MIC (E. coli ATCC 25922; Escherichia coli, ATCC25922; E. coli ATCC 25922; MHB; read-out: Minimum Inhibitory Concentration, E. coli 25922) | MIC [3] | MIC (E. coli 901C; E. coli 901C (hyper-permeable)) | MIC (E. coli AG100A) | MIC [4] | MIC (E. coli D22; hyper-permeable E. coli D22) | MIC (E. coli AG100; [5]) | MIC (E. coli ATCC 25922; [6]) | MIC (E. coli 901C; hyper-permeable E. coli 901C) | pEC50 (P. aeruginosa PBP3)
1 | NCCCN1CCN(C(=O)N[C@H](C(=O)N[C@H]2Cc3cccc(C(=O)O)c3OB2O)c2cc(F)c(O)c(F)c2F)C(=O)C1=O (single isomer, unassigned) [Example 247] | > 128 µg/mL | 8 to 16 µg/mL (≈ 13.2 to 26.3 µM) | 2 to 4 µg/mL (≈ 3.29 to 6.59 µM) | < 0.25 µg/mL |  |  |  |  |  |  |  |  |  |  |  |  | 
2 | CCN1CCN(C(=O)NC(C(=O)N[C@H]2Cc3cccc(C(=O)O)c3OB2O)c2ccc(C(=O)O)c([N+](=O)[O-])c2)C(=O)C1=O (stereo partly drawn) [Example 220, (3R)-3-(2-(4-carboxy-3-nitrophenyl)-2-(4-ethyl-2,3-dioxopiperazine-1-carboxamido)acetamido)-2-hydroxy-3,4-dihydro-2H-benzo[e][1,2]oxaborinine-8-carboxylic acid] | > 128 µg/mL | > 128 µg/mL | 8 to 16 µg/mL (≈ 13.4 to 26.8 µM) | 0.5 to 1 µg/mL (≈ 0.837 to 1.67 µM) | 32 to 64 µg/mL (≈ 53.6 to 107 µM) | < 0.25 µg/mL | > 128 µg/mL | > 128 µg/mL | 32 to 64 µg/mL (≈ 53.6 to 107 µM) | > 128 µg/mL | 32 to 64 µg/mL (≈ 53.6 to 107 µM) | 2 to 4 µg/mL (≈ 3.35 to 6.7 µM) |  |  |  |  | 
3 | C[C@H]1CN(CCF)C(=O)C(=O)N1C(=O)N[C@@H](C(=O)N[C@H]1Cc2cccc(C(=O)O)c2OB1O)c1ccc(O)c(F)c1F [Example 241, (3R)-3-(2-(2,3-difluoro-4-hydroxyphenyl)-2-((S)-4-(2-fluoroethyl)-6-methyl-2,3-dioxopiperazine-1-carboxamido)acetamido)-2-hydroxy-3,4-dihydro-2H-benzo[e][1,2]oxaborinine-8-carboxylic acid] | > 128 µg/mL | > 128 µg/mL | 2 to 4 µg/mL (≈ 3.38 to 6.75 µM) | 2 to 4 µg/mL (≈ 3.38 to 6.75 µM) |  | < 0.25 µg/mL |  |  | 32 to 64 µg/mL (≈ 54 to 108 µM) |  | 32 to 64 µg/mL (≈ 54 to 108 µM) | 2 to 4 µg/mL (≈ 3.38 to 6.75 µM) | 32 to 64 µg/mL (≈ 54 to 108 µM) | 32 to 64 µg/mL (≈ 54 to 108 µM) | 8 to 16 µg/mL (≈ 13.5 to 27 µM) | > 128 µg/mL | 
4 | C[C@H]1CN(CCN)C(=O)C(=O)N1C(=O)N[C@@H](C(=O)N[C@H]1Cc2cccc(C(=O)O)c2OB1O)c1ccc(O)c(F)c1F [Example 242, (3R)-3-(2-((S)-4-(2-aminoethyl)-6-methyl-2,3-dioxopiperazine-1-carboxamido)-2-(2,3-difluoro-4-hydroxyphenyl)acetamido)-2-hydroxy-3,4-dihydro-2H-benzo[e][1,2]oxaborinine-8-carboxylic acid] | > 128 µg/mL | > 128 µg/mL | 8 to 16 µg/mL (≈ 13.6 to 27.2 µM) | 0.5 to 1 µg/mL (≈ 0.848 to 1.7 µM) |  | 0.5 to 1 µg/mL (≈ 0.848 to 1.7 µM) |  |  | 32 to 64 µg/mL (≈ 54.3 to 109 µM) |  | 32 to 64 µg/mL (≈ 54.3 to 109 µM) | 2 to 4 µg/mL (≈ 3.39 to 6.79 µM) | 8 to 16 µg/mL (≈ 13.6 to 27.2 µM) | 32 to 64 µg/mL (≈ 54.3 to 109 µM) | 8 to 16 µg/mL (≈ 13.6 to 27.2 µM) | 32 to 64 µg/mL (≈ 54.3 to 109 µM) | 
5 | C[C@H]1[C@H](NC(=O)/C(=N\OC(C)(C)C(=O)O)c2csc(N)n2)C(=O)N1S(=O)(=O)O [aztreonam, reference compound] |  |  |  |  |  |  |  |  |  |  |  |  |  |  |  |  | > 6.30
